In patent US12365687B2 (Hoffmann-La Roche Inc., priority 2021, dated 2025):

Experiments:
[1] = target: human GABAA α1β2γ1 receptor (Homo sapiens (Human), UniProt P14867+Q8N1C3); test: Radioligand binding assay for γ1-containing GABAA subtypes, [3H]RO7239181 competition (α1β2γ1)
Description: The affinity of compounds at GABAA γ1 subunit-containing receptors was measured by competition for [^3H]RO7239181 (67.3 Ci/mmol; Roche) binding to membranes from HEK293F cells (ThermoFisher R79007) expressing human (transiently transfected) receptors of composition α5β2γ1, α2β2γ1, α1β2γ1.
Harvested pellets from HEK293F cells expressing the different GABAA receptor subtypes were resuspended in Mannitol Buffer pH 7.2-7.4 (Mannitol 0.29 M, Triethylamine 10 mM, Acetic acid 10 mM, EDTA 1 mM plus protease inhibitors (20 tablets Complete, Roche Diagnostics Cat. No. 05 056 489 001 per liter)), washed two times and then resuspended at 1:10 to 1:15 dilution in the same buffer. Cell disruption was performed by stirring the suspension in a Parr vessel #4637 at 435 psi for 15 minutes, and then the suspensions were centrifuged at 1000×g for 15 minutes at 4° C. (Beckman Avanti J-HC; rotor JS-4.2). The supernatant (S1) was transferred in a 2 l Schott flask and the pellet (P1) was resuspended with Mannitol Buffer up to 175 ml. The resuspended pellet was transferred into a 250 ml Corning centrifugal beaker and centrifuged at 1500×g for 10 minutes at 4° C. (Beckman Avanti J-HC; rotor JS-4.2). The supernatant (S1) was then transferred in the 2 l Schott flask and the pellet was discarded. The supernatants (S1) were centrifuged in 500 ml Beckman polypropylene centrifugal beaker at 15′000×g for 30 minutes at 4° C. (Beckman Avanti J-20 XP; rotor JLA-10.500). The pellet (P2) was resuspended with Mannitol Buffer 1:1 and frozen at −80° C. The supernatant (S2) was centrifuged in 100 ml Beckman polypropylene centrifugal tubes at 48000×g for 50 minutes at 4° C. (Beckman Avanti J-20 XP; rotor JA-18). The supernatant (S3) was discarded and the pellet (P3) was resuspended with 1:1 Mannitol Buffer. The P2 and P3 protein concentration was determined with the BIORAD Standard assay method with bovine serum albumin as standard and measured on the NANO-Drop 1000. The membrane suspension was aliquots (500 μl per tube) and stored at −80° C. until required.
Membrane homogenates were resuspended and polytronised (Polytron PT1200E Kinematica AG) in Potassium Phosphate 10 mM, KCl 100 mM binding buffer at pH 7.4 to a final assay concentration determined with a previous experiment.
Assays were incubated to equilibrium for 1 hour at 4° C. and then, membranes were filtered onto unifilter (96-well white microplate with bonded GF/C filters preincubated 20-50 minutes in 0.3% Polyethylenimine) with a Filtermate 196 harvester (Packard BioScience) and washed 4 times with cold Potassium Phosphate 10 mM pH 7.4, KCl 100 mM binding buffer. After anhydrousing, filter-retained radioactivity was detected by liquid scintillation counting. Ki values were calculated using Excel-Fit (Microsoft) and are the means of two determinations.

[2] = target: human GABAA α1β3γ2 receptor (Homo sapiens (Human), UniProt P14867+P18507); test: Radioligand binding assay for γ2-containing GABAA subtypes, [3H]Flumazenil competition (α1β3γ2); conditions: for γ2/γ1 Selectivity Ratio: Ki α1β3γ2 (nM)/Ki α2β2γ1 (nM); for LogSel: Log[Ki α1β3γ2 (nM)/Ki α2β2γ1 (nM)]
[3] = target: human GABAA α5β2γ1 receptor (Homo sapiens (Human), UniProt P31644+Q8N1C3); test: Radioligand binding assay for γ1-containing GABAA subtypes, [3H]RO7239181 competition (α5β2γ1)
[4] = target: α2β2γ1 GABAA receptor subtype (Homo sapiens (Human), UniProt P47869+Q8N1C3); test: Two-electrode voltage clamp electrophysiology in Xenopus oocytes expressing GABAA receptors (modulation of GABA EC20 current); type: cell-based; conditions: for Efficacy (GABA)%: % modulation of GABA EC20 = 100*(Fold increase-1), α2β2γ1 oocytes, compound at approx. 30-fold Ki; for Fold increase h-GABA-A α2β2γ1 oocyte @ 30-fold Ki: Xenopus oocytes expressing α2β2γ1, compound at approx. 30-fold its Ki α2β2γ1, GABA EC20 current
How it was run: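 Two-electrode voltage clamp at −80 mV, room temperature, 3-5 days after mRNA injection into oocytes. GABA applied at EC20 for 1.5 min, twice, with compound during second application; at least 3 oocytes per concentration. Efficacy = extremum of point-by-point current ratio, expressed as 100×(fold increase−1).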

[5] = target: human GABAA α2β2γ1 receptor (Homo sapiens (Human), UniProt P47869+Q8N1C3); test: Radioligand binding assay for γ1-containing GABAA subtypes, [3H]RO7239181 competition (α2β2γ1)
[6] = Ki h-GABAA α2β2γ1, [3H]RO7239181 competition binding, human GABAA α2β2γ1
[7] = Ki h-GABAA α2β2γ1, displacement of [3H]RO7239181, membranes of HEK293F cells expressing human receptors, means of two determinations

| Structure (SMILES) | Ki [1] [nM] | Ki [2] [nM] | γ2/γ1 Selectivity Ratio [2] | LogSel [2] | Ki [3] [nM] | Efficacy (GABA)% [4] [%] | Fold increase h-GABA-A α2β2γ1 oocyte @ 30-fold Ki [4] | Ki [5, 6] [nM] | Ki [5, 7] [nM] |
| --- | --- | --- | --- | --- | --- | --- | --- | --- | --- |
| C[C@@H]1N=C(c2ncccc2F)c2c(ccc(C(F)(F)F)c2Cl)-n2cc(C(=O)NCC(C)(C)O)nc21 [Example 159, (4S)-7-chloro-6-(3-fluoro-2-pyridyl)-N-(2-hydroxy-2-methyl-propyl)-4-methyl-8-(trifluoromethyl)-4H-imidazo[1,2-a][1,4]benzodiazepine-2-carboxamide] | 70.4 | 8320 | 195.6 | 2.29 | 11.4 | 217 | 3.17 | 43 | 42.6 |
| CNC(=O)Nc1nc2n(n1)-c1ccc(C(F)(F)F)c(Cl)c1C(c1c(F)cccc1F)=N[C@H]2C [Example 129, 1-[(4S)-7-chloro-6-(2,6-difluorophenyl)-4-methyl-8-(trifluoromethyl)-4H-[1,2,4]triazolo[1,5-a][1,4]benzodiazepin-2-yl]-3-methyl-urea] | 49.9 | 3350 | 558.0 | 2.75 | 1.58 | 36 | 1.36 | 6 | 6 |
| C[C@@H]1N=C(c2c(F)cccc2F)c2c(ccc(C(F)(F)F)c2Cl)-n2nc(C(=O)NN(C)C)nc21 [Example 117, (4S)-7-chloro-6-(2,6-difluorophenyl)-N′,N′,4-trimethyl-8-(trifluromethyl)-4H-[1,2,4]triazolo[1,5-a][1,4]benzodiazepine-2-carbohydrazide] | 99.2 | 5510 | 276.4 | 2.44 | 3.14 | 92 | 1.92 | 20 | 20 |
| C[C@@H]1N=C(c2c(F)cccc2F)c2c(ccc(Cl)c2Cl)-n2nc(C(=O)N3CCC3)nc21 [Example 14, azetidin-1-yl-[(4S)-7,8-dichloro-6-(2,6-difluorophenyl)-4-methyl-4H-[1,2,4]triazolo[1,5-a][1,4]benzodiazepin-2-yl]methanone] | 8.5 | 773 | 108.2 | 2.03 | 1.11 | 57 | 1.57 | 7.1 | 7.1 |
| C[C@@H]1N=C(c2c(F)cccc2F)c2c(ccc(Cl)c2Cl)-n2nc(C(=O)N3CC[C@@H](O)C3)nc21 [Example 47, [(4S)-7,8-dichloro-6-(2,6-difluorophenyl)-4-methyl-4H-[1,2,4]triazolo[1,5-a][1,4]benzodiazepin-2-yl]-[(3R)-3-hydroxypyrrolidin-1-yl]methanone] |  | 1010 | 294.7 | 2.47 | 1.44 | 74 | 1.74 | 3.4 | 3.43 |
| O=C(c1nc2n(n1)-c1ccc(Cl)c(Cl)c1C(c1c(F)cccc1F)=NC2)N1CCC1 [Example 8, azetidin-1-yl-[7,8-dichloro-6-(2,6-difluorophenyl)-4H-[1,2,4]triazolo[1,5-a][1,4]benzodiazepin-2-yl]methanone] |  | 368 | 44.7 | 1.65 | 1.08 | 98 | 1.98 | 8.2 | 8.2 |
| C[C@@H]1N=C(c2c(F)cccc2F)c2c(ccc(Cl)c2Cl)-n2nc(NC(=O)N3CC(F)C3)nc21 [Example 57, 3-fluoro-N-[(4S)-7,8-dichloro-6-(2,6-difluorophenyl)-4-methyl-4H-[1,2,4]triazolo[1,5-a][1,4]benzodiazepin-2-yl]azetidine-1-carboxamide] |  | 822 | 46.2 | 1.67 | 1.84 | 76 | 1.76 | 17.8 | 17.8 |
| C[C@@H]1N=C(c2c(F)cccc2F)c2c(ccc(C(F)(F)F)c2Cl)-n2nc(NC(=O)NC3COC3)nc21 [Example 125, 1-[(4S)-7-chloro-6-(2,6-difluorophenyl)-4-methyl-8-(trifluoromethyl)-4H-[1,2,4]triazolo[1,5-a][1,4]benzodiazepin-2-yl]-3-(oxetan-3-yl)urea] |  | 1600 | 259.0 | 2.41 | 1.7 | 73 | 1.73 | 6.2 | 6.19 |
| COC1CN(C(=O)c2nc3n(n2)-c2ccc(Cl)c(Cl)c2C(c2ncccc2F)=N[C@H]3C)C1 [Example 38, [(4S)-7,8-dichloro-6-(3-fluoro-2-pyridyl)-4-methyl-4H-[1,2,4]triazolo[1,5-a][1,4]benzodiazepin-2-yl]-(3-methoxyazetidin-1-yl)methanone] |  | 2200 | 77.8 | 1.89 | 4.46 | 116 | 2.16 | 28.2 | 28.2 |
| Cc1nc2n(n1)-c1ccc(C(F)(F)F)c(Cl)c1C(c1ncccc1F)=N[C@H]2C [Example 83, (4S)-7-chloro-6-(3-fluoro-2-pyridyl)-2,4-dimethyl-8-(trifluoromethyl)-4H-[1,2,4]triazolo[1,5-a][1,4]benzodiazepine] |  | 5490 | 77.6 | 1.89 | 5.54 | 154 | 2.54 | 70.8 | 70.8 |
| C[C@@H]1N=C(c2c(F)cccc2F)c2c(ccc(C(F)(F)F)c2Cl)-n2ncnc21 [Example 22, (4S)-7-chloro-6-(2,6-difluorophenyl)-4-methyl-8-(trifluoromethyl)-4H-[1,2,4]triazolo[1,5-a][1,4]benzodiazepine] |  | 1560 | 136.7 | 2.14 | 1.02 | 78 | 1.78 | 11.4 | 11.4 |
| C[C@@H]1N=C(c2ncccc2F)c2c(ccc(Cl)c2Cl)-n2nc(C(=O)N3CC4(CCOC4)C3)nc21 [Example 100, [(4S)-7,8-dichloro-6-(3-fluoro-2-pyridyl)-4-methyl-4H-[1,2,4]triazolo[1,5-a][1,4]benzodiazepin-2-yl]-(6-oxa-2-azaspiro[3.4]octan-2-yl)methanone] |  | 9110 | 219.5 | 2.34 | 7.53 | 128 | 2.28 | 41.5 | 41.5 |
